Assay results reported in publication PMC7017090, “Repaglinide Silences the FOXO3/Lumican Axis and Represses the Associated Metastatic Potential of Neuronal Cancer Cells” (Cells, 2019).

Legend:
FOXO3 = FOXO3 (Homo sapiens, UniProt O43524); assay: fluorescence polarization displacement of IRE-FAM oligonucleotide from recombinant FOXO3-DBD (Ki calculated from IC50 […]); supported by FAM-EMSA; type: binding
FOXO3-DBD = FOXO3-DBD (human, UniProt O43524 156-269); assay: EMSA; 1 uM protein, 100 nM DNA; 'high affinity'; Not stated; FPA and FAM-EMSA as described in ref 24; conditions: protein: recombinant; blunt
FOXO3-DBD, sequence (O43524 156-269): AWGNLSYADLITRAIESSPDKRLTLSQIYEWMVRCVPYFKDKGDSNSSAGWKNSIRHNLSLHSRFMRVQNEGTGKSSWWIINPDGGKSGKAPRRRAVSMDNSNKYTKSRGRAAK

FOXO3, sequence (O43524 156-269): as above

Ki (FOXO3) | Molecule | binding result (FOXO3-DBD)
24.9 µM | CCOc1cc(CC(=O)N[C@@H](CC(C)C)c2ccccc2N2CCCCC2)ccc1C(=O)O [RPG, repaglinide] | –
– | FoxP3 oligonucleotide (FAM) (dsDNA) DNA 1: AGCAAAGTTGTTTTTGATAATG DNA 2: CATTATCAAAAACAACTTTGCT | binds
